Source: ChEMBL document CHEMBL1201862, “PubChem BioAssay data set” (2004)
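Values below derive from 48-hour exposures of cells grown in 96-well plates, with endpoints linearly interpolated between the two concentrations bracketing the appropriate inhibition level. Here, GI50 denotes the concentration required for 50% inhibition of growth.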 Calls of active or inactive are those of the source. Cut-off read from the data, not from the text of the source: active = GI50 up to about 1.1 µM and inactive = higher. Where a SMILES comes first, the peptide text is derived from it. Bridges are numbered along the chain shown (N, C = ends). The star is where a group is joined. Cbz = O=C(OCc1ccccc1)*

What was measured:
Experiment in all cases: inhibition of tumour cell growth, NCI panel, 48 h
A498 = system: A498
CCRF-CEM = system: CCRF-CEM
HCC 2998 = system: HCC 2998
HCT-15 = system: HCT-15
HOP-62 = system: HOP-62
IGROV-1 = system: IGROV-1
KM12 = system: KM12
MCF7 = system: MCF7
MDA-MB-231 = system: MDA-MB-231
MDA-MB-435 = system: MDA-MB-435
OVCAR-4 = system: OVCAR-4
OVCAR-5 = system: OVCAR-5
OVCAR-8 = system: OVCAR-8
PC-3 = system: PC-3
RXF 393 = system: RXF 393
SK-MEL-28 = system: SK-MEL-28
SK-MEL-2 = system: SK-MEL-2
SN12C = system: SN12C
SW-620 = system: SW-620
K562 = system: K562

| SMILES | GI50 (A498) | GI50 (CCRF-CEM) | GI50 (HCC 2998) | GI50 (HCT-15) | GI50 (HOP-62) | GI50 (IGROV-1) | GI50 (KM12) | GI50 (MCF7) | GI50 (MDA-MB-231) | GI50 (MDA-MB-435) | GI50 (OVCAR-4) | GI50 (OVCAR-5) | GI50 (OVCAR-8) | GI50 (PC-3) | GI50 (RXF 393) | GI50 (SK-MEL-28) | GI50 (SK-MEL-2) | GI50 (SN12C) | GI50 (SW-620) | GI50 (K562) |
| --- | --- | --- | --- | --- | --- | --- | --- | --- | --- | --- | --- | --- | --- | --- | --- | --- | --- | --- | --- | --- |
| Cc1cc2c(SCc3ccccc3Cl)nc(N)nc2nc1C | > 100 µM (inactive) | > 100 µM (inactive) | > 100 µM (inactive) | > 100 µM | > 100 µM (inactive) | > 100 µM (inactive) | > 100 µM (inactive) | > 100 µM (inactive) | > 100 µM (inactive) | > 100 µM (inactive) | > 100 µM (inactive) | > 100 µM (inactive) | > 100 µM (inactive) | > 100 µM (inactive) | > 100 µM (inactive) | > 100 µM (inactive) | > 100 µM (inactive) | > 100 µM (inactive) | > 100 µM (inactive) |  |
| CCOC(=O)c1csc(NC(=O)CN2CCOCC2)n1 | > 100 µM (inactive) | > 100 µM (inactive) | > 100 µM (inactive) | > 100 µM | > 100 µM (inactive) | > 100 µM (inactive) | > 100 µM (inactive) | > 100 µM (inactive) | > 100 µM (inactive) | > 100 µM (inactive) | > 100 µM (inactive) | > 100 µM (inactive) | > 100 µM (inactive) | > 100 µM (inactive) | > 100 µM (inactive) | > 100 µM (inactive) | > 100 µM (inactive) |  | > 100 µM (inactive) | > 100 µM (inactive) |
| O=C1NC(N2CCOCC2)=N/C1=C\c1ccc(O)cc1 |  | > 100 µM (inactive) | > 100 µM (inactive) | > 100 µM | > 100 µM (inactive) | > 100 µM (inactive) | > 100 µM (inactive) | > 100 µM (inactive) | > 100 µM (inactive) | > 100 µM (inactive) | > 100 µM (inactive) | > 100 µM (inactive) | > 100 µM (inactive) | > 100 µM (inactive) | > 100 µM (inactive) | > 100 µM (inactive) | > 100 µM (inactive) | > 100 µM (inactive) | > 100 µM (inactive) |  |
| CCOC(=O)/C(=C\c1cccc(C)c1)C(C)=O | 13.4 µM (inactive) |  | 15.1 µM (inactive) | 15.6 µM | 24.5 µM (inactive) | 15.4 µM (inactive) | 15.2 µM (inactive) | 13.2 µM (inactive) | 12.4 µM (inactive) | 16.3 µM (inactive) | 19.2 µM (inactive) | 10.9 µM (inactive) | 21.6 µM (inactive) | 10.5 µM (inactive) | 11.5 µM (inactive) | 12.6 µM (inactive) | 10.1 µM (inactive) | 17.1 µM (inactive) | 12.5 µM (inactive) | 28.4 µM (inactive) |
| NNC(=O)c1cc([N+](=O)[O-])ccc1NC(=O)C12CC3CC(CC(C3)C1)C2 |  | 2.27 µM (inactive) | 10.5 µM (inactive) | 0.635 µM | 16.3 µM (inactive) | 1.9 µM (inactive) | 20.1 µM (inactive) | 23.1 µM (inactive) | 5.01 µM (inactive) | 14.3 µM (inactive) | 2.62 µM (inactive) | 13.4 µM (inactive) | 14.9 µM (inactive) | 13 µM (inactive) | 7.98 µM (inactive) |  |  | 8.63 µM (inactive) | 7.74 µM (inactive) | 7.48 µM (inactive) |
| COc1cc(/C=N\O)cc(/C=N/O)c1O | 43.8 µM (inactive) | 12.1 µM (inactive) |  | > 100 µM | 21.9 µM (inactive) | > 100 µM (inactive) | > 100 µM (inactive) | 60.8 µM (inactive) | 47.3 µM (inactive) | 40 µM (inactive) | > 100 µM (inactive) | 44.3 µM (inactive) | 37.1 µM (inactive) | 28.9 µM (inactive) | 23.6 µM (inactive) | 38.5 µM (inactive) | 25.8 µM (inactive) | 31 µM (inactive) | 73.1 µM (inactive) | 71.9 µM (inactive) |
| Nc1c(-c2ccccc2)c2ccc([N+](=O)[O-])cc2c(=O)n1-c1cccc(C(=O)O)c1 | > 100 µM (inactive) | 94.6 µM (inactive) | > 100 µM (inactive) | > 100 µM | > 100 µM (inactive) | > 100 µM (inactive) | > 100 µM (inactive) | > 100 µM (inactive) | > 100 µM (inactive) | > 100 µM (inactive) | > 100 µM (inactive) | > 100 µM (inactive) | > 100 µM (inactive) | > 100 µM (inactive) | > 100 µM (inactive) | > 100 µM (inactive) | > 100 µM (inactive) |  | > 100 µM (inactive) | > 100 µM (inactive) |
| Nn1c(CNc2ccc(-c3nnc(Nc4ccc(Cl)cc4)n3N)cc2)nnc1Nc1ccc(Cl)cc1 | > 100 µM (inactive) |  | > 100 µM (inactive) | > 100 µM | 34.1 µM (inactive) | > 100 µM (inactive) | > 100 µM (inactive) | 61.1 µM (inactive) | > 100 µM (inactive) | > 100 µM (inactive) | > 100 µM (inactive) | > 100 µM (inactive) |  | > 100 µM (inactive) | > 100 µM (inactive) | > 100 µM (inactive) | > 100 µM (inactive) | > 100 µM (inactive) | > 100 µM (inactive) | 67.9 µM (inactive) |
| COC(=O)C12CCCN1CCC2 |  | > 100 µM (inactive) | > 100 µM (inactive) | > 100 µM | > 100 µM (inactive) |  | > 100 µM (inactive) | > 100 µM (inactive) | > 100 µM (inactive) | > 100 µM (inactive) | > 100 µM (inactive) | > 100 µM (inactive) |  | > 100 µM (inactive) | > 100 µM (inactive) | > 100 µM (inactive) | > 100 µM (inactive) | > 100 µM (inactive) | > 100 µM (inactive) | > 100 µM (inactive) |
| C[P+](c1ccccc1)(c1ccc(Cl)cc1)c1ccc(Cl)cc1 | 27.5 µM (inactive) |  | 8.61 µM (inactive) | 88.9 µM | 19.5 µM (inactive) | 4.94 µM (inactive) |  | 26.9 µM (inactive) | 13.2 µM (inactive) | 5.45 µM (inactive) | 13.2 µM (inactive) | 18.2 µM (inactive) | 14.7 µM (inactive) | 20.2 µM (inactive) | 46.2 µM (inactive) | 10 µM (inactive) | 19.9 µM (inactive) | 15.6 µM (inactive) | 18.5 µM (inactive) | 11.2 µM (inactive) |
| S=C(NN=C1NCCCCN1)Nc1ccc(Cl)cc1 | 33 µM (inactive) | 4.48 µM (inactive) | 18.1 µM (inactive) | 6.4 µM | 11 µM (inactive) | 16 µM (inactive) | 14.5 µM (inactive) | 34 µM (inactive) | 21 µM (inactive) | 22.9 µM (inactive) | 38.9 µM (inactive) | 14.8 µM (inactive) | 10.3 µM (inactive) | 13.9 µM (inactive) | > 100 µM (inactive) | 31 µM (inactive) | 22.3 µM (inactive) |  | 25.4 µM (inactive) | 5.85 µM (inactive) |
| COc1ccc(/N=C2/C(=N/c3ccc(OC)cc3)N(c3ccccc3)C(=S)N2N=C=C2Sc3ccccc3N2C)cc1 |  |  | > 100 µM (inactive) | > 100 µM | 52.5 µM (inactive) | > 100 µM (inactive) | > 100 µM (inactive) | > 100 µM (inactive) | 25.5 µM (inactive) | > 100 µM (inactive) |  | > 100 µM (inactive) | > 100 µM (inactive) | > 100 µM (inactive) | 3.75 µM (inactive) | > 100 µM (inactive) | > 100 µM (inactive) | > 100 µM (inactive) | > 100 µM (inactive) | > 100 µM (inactive) |
| CC(=O)OC[C@H]1O[C@@H](O[C@H]2[C@H](OC(C)=O)C=CO[C@@H]2COC(C)=O)C(OC(C)=O)[C@H]2OC(C)(C)O[C@H]21 (stereo not given in full) |  | 62.8 µM (inactive) | > 100 µM (inactive) | > 100 µM | > 100 µM (inactive) | > 100 µM (inactive) | > 100 µM (inactive) | > 100 µM (inactive) | > 100 µM (inactive) | 48.1 µM (inactive) | > 100 µM (inactive) | > 100 µM (inactive) | > 100 µM (inactive) | > 100 µM (inactive) | 2.43 µM (inactive) | > 100 µM (inactive) |  | > 100 µM (inactive) | 64.3 µM (inactive) | > 100 µM (inactive) |
| COC(=O)C1CCCCNC(=O)CCC(NC(=O)OCc2ccccc2)C(=O)N1 (stereo not drawn) (Cbz-Glu-Lys-OMe; lactam 1-2; configuration not given here) | > 100 µM (inactive) | > 100 µM (inactive) |  | > 100 µM | 38.7 µM (inactive) | > 100 µM (inactive) | > 100 µM (inactive) | > 100 µM (inactive) | 62.7 µM (inactive) | > 100 µM (inactive) | > 100 µM (inactive) | > 100 µM (inactive) | > 100 µM (inactive) | > 100 µM (inactive) | 25.5 µM (inactive) | > 100 µM (inactive) | > 100 µM (inactive) | > 100 µM (inactive) | > 100 µM (inactive) | > 100 µM (inactive) |
| c1ccc2c(Cc3c[nH]c4ccccc34)c[nH]c2c1 [ARUNDINE] | 38.8 µM (inactive) | 12.8 µM (inactive) |  | 23.4 µM | 17.7 µM (inactive) | 14.7 µM (inactive) | 19.1 µM (inactive) | > 100 µM (inactive) | 14.3 µM (inactive) | 15.6 µM (inactive) | 17.8 µM (inactive) | 14.2 µM (inactive) | 20.5 µM (inactive) | 18.2 µM (inactive) | 15.6 µM (inactive) | 36 µM (inactive) | 22.8 µM (inactive) | 16.6 µM (inactive) | 20.1 µM (inactive) | 19.6 µM (inactive) |
